Source: the CheMixHub viscosity set

Test: xn = mol fraction of the nth substance listed

NC=O + CCCO
Conditions	viscosity [mPa·s]
293.15 K, 101 kPa, x1 = 0.0557	2.16
293.15 K, 101 kPa, x1 = 0.1172	2.201
293.15 K, 101 kPa, x1 = 0.1854	2.285
293.15 K, 101 kPa, x1 = 0.2615	2.419
298.15 K, 100 kPa, x1 = 0.0744	1.97
298.15 K, 100 kPa, x1 = 0.116	1.98
298.15 K, 100 kPa, x1 = 0.1885	2.07
298.15 K, 100 kPa, x1 = 0.294	2.27
298.15 K, 100 kPa, x1 = 0.3225	2.33
298.15 K, 100 kPa, x1 = 0.331	2.4
298.15 K, 100 kPa, x1 = 0.4121	2.54
298.15 K, 100 kPa, x1 = 0.4562	2.61
298.15 K, 100 kPa, x1 = 0.4974	2.73
298.15 K, 100 kPa, x1 = 0.5225	2.76
298.15 K, 100 kPa, x1 = 0.6129	2.96
298.15 K, 100 kPa, x1 = 0.6877	3.09
298.15 K, 100 kPa, x1 = 0.7379	3.17
298.15 K, 100 kPa, x1 = 0.8232	3.28
298.15 K, 100 kPa, x1 = 0.8536	3.31
298.15 K, 100 kPa, x1 = 0.9169	3.36
298.15 K, 100 kPa, x1 = 0.9506	3.34
298.15 K, 101 kPa, x1 = 0.0557	1.938
298.15 K, 101 kPa, x1 = 0.1172	1.976
298.15 K, 101 kPa, x1 = 0.1854	2.052
298.15 K, 101 kPa, x1 = 0.2615	2.181
303.15 K, 101 kPa, x1 = 0.0557	1.742
303.15 K, 101 kPa, x1 = 0.1172	1.775
303.15 K, 101 kPa, x1 = 0.1854	1.846
303.15 K, 101 kPa, x1 = 0.2615	1.962
303.15 K, 101 kPa, x2 = 0.0999	2.877
303.15 K, 101 kPa, x2 = 0.2004	2.813
303.15 K, 101 kPa, x2 = 0.3002	2.706
303.15 K, 101 kPa, x2 = 0.4	2.554
303.15 K, 101 kPa, x2 = 0.5	2.378
303.15 K, 101 kPa, x2 = 0.6	2.191
303.15 K, 101 kPa, x2 = 0.6998	2.022
303.15 K, 101 kPa, x2 = 0.8	1.87
303.15 K, 101 kPa, x2 = 0.9001	1.756
303.15 K, 101.3 kPa, x1 = 0.0961	1.6
303.15 K, 101.3 kPa, x1 = 0.1755	1.7
303.15 K, 101.3 kPa, x1 = 0.2494	1.8
303.15 K, 101.3 kPa, x1 = 0.3192	1.9
303.15 K, 101.3 kPa, x1 = 0.3902	2
303.15 K, 101.3 kPa, x1 = 0.4629	2.1
303.15 K, 101.3 kPa, x1 = 0.5342	2.2
303.15 K, 101.3 kPa, x1 = 0.614	2.4
303.15 K, 101.3 kPa, x1 = 0.6891	2.6
303.15 K, 101.3 kPa, x1 = 0.7654	2.7
303.15 K, 101.3 kPa, x1 = 0.8114	2.7
303.15 K, 101.3 kPa, x1 = 0.921	2.8
308.15 K, 101 kPa, x1 = 0.0557	1.584
308.15 K, 101 kPa, x1 = 0.1172	1.618
308.15 K, 101 kPa, x1 = 0.1854	1.678
308.15 K, 101 kPa, x1 = 0.2615	1.798
308.15 K, 101 kPa, x2 = 0.0999	2.554
308.15 K, 101 kPa, x2 = 0.2004	2.492
308.15 K, 101 kPa, x2 = 0.3002	2.393
308.15 K, 101 kPa, x2 = 0.4	2.261
308.15 K, 101 kPa, x2 = 0.5	2.11
308.15 K, 101 kPa, x2 = 0.6	1.949
308.15 K, 101 kPa, x2 = 0.6998	1.802
308.15 K, 101 kPa, x2 = 0.8	1.669
308.15 K, 101 kPa, x2 = 0.9001	1.569
308.15 K, 101.3 kPa, x1 = 0.0961	1.4
308.15 K, 101.3 kPa, x1 = 0.1755	1.5
308.15 K, 101.3 kPa, x1 = 0.2494	1.5
308.15 K, 101.3 kPa, x1 = 0.3192	1.6
308.15 K, 101.3 kPa, x1 = 0.3902	1.7
308.15 K, 101.3 kPa, x1 = 0.4629	1.8
308.15 K, 101.3 kPa, x1 = 0.5342	1.9
308.15 K, 101.3 kPa, x1 = 0.614	2.1
308.15 K, 101.3 kPa, x1 = 0.6891	2.2
308.15 K, 101.3 kPa, x1 = 0.7654	2.3
308.15 K, 101.3 kPa, x1 = 0.8114	2.4
308.15 K, 101.3 kPa, x1 = 0.921	2.5
313.15 K, 101 kPa, x1 = 0.0557	1.349
313.15 K, 101 kPa, x1 = 0.1172	1.388
313.15 K, 101 kPa, x1 = 0.1854	1.457
313.15 K, 101 kPa, x1 = 0.2615	1.595
313.15 K, 101 kPa, x2 = 0.0999	2.285
313.15 K, 101 kPa, x2 = 0.2004	2.223
313.15 K, 101 kPa, x2 = 0.3002	2.133
313.15 K, 101 kPa, x2 = 0.4	2.015
313.15 K, 101 kPa, x2 = 0.5	1.881
313.15 K, 101 kPa, x2 = 0.6	1.74
313.15 K, 101 kPa, x2 = 0.6998	1.61
313.15 K, 101 kPa, x2 = 0.8	1.494
313.15 K, 101 kPa, x2 = 0.9001	1.407
313.15 K, 101.3 kPa, x1 = 0.0961	1.3
313.15 K, 101.3 kPa, x1 = 0.1755	1.3
313.15 K, 101.3 kPa, x1 = 0.2494	1.4
313.15 K, 101.3 kPa, x1 = 0.3192	1.5
313.15 K, 101.3 kPa, x1 = 0.3902	1.6
313.15 K, 101.3 kPa, x1 = 0.4629	1.7
313.15 K, 101.3 kPa, x1 = 0.5342	1.7
313.15 K, 101.3 kPa, x1 = 0.614	1.9
313.15 K, 101.3 kPa, x1 = 0.6891	2
313.15 K, 101.3 kPa, x1 = 0.7654	2.1
313.15 K, 101.3 kPa, x1 = 0.8114	2.1
313.15 K, 101.3 kPa, x1 = 0.921	2.2
318.15 K, 101 kPa, x1 = 0.0557	1.219
318.15 K, 101 kPa, x1 = 0.1172	1.263
318.15 K, 101 kPa, x1 = 0.1854	1.333
318.15 K, 101 kPa, x2 = 0.0999	2.056
318.15 K, 101 kPa, x2 = 0.2004	1.995
318.15 K, 101 kPa, x2 = 0.3002	1.912
318.15 K, 101 kPa, x2 = 0.4	1.804
318.15 K, 101 kPa, x2 = 0.5	1.685
318.15 K, 101 kPa, x2 = 0.6	1.561
318.15 K, 101 kPa, x2 = 0.6998	1.447
318.15 K, 101 kPa, x2 = 0.8	1.344
318.15 K, 101 kPa, x2 = 0.9001	1.266
318.15 K, 101.3 kPa, x1 = 0.0961	1.1
318.15 K, 101.3 kPa, x1 = 0.1755	1.1
318.15 K, 101.3 kPa, x1 = 0.2494	1.2
318.15 K, 101.3 kPa, x1 = 0.3192	1.3
318.15 K, 101.3 kPa, x1 = 0.3902	1.4
318.15 K, 101.3 kPa, x1 = 0.4629	1.5
318.15 K, 101.3 kPa, x1 = 0.5342	1.5
318.15 K, 101.3 kPa, x1 = 0.614	1.6
318.15 K, 101.3 kPa, x1 = 0.6891	1.7
318.15 K, 101.3 kPa, x1 = 0.7654	1.8
318.15 K, 101.3 kPa, x1 = 0.8114	1.9
318.15 K, 101.3 kPa, x1 = 0.921	1.9
323.15 K, 101 kPa, x2 = 0.0999	1.86
323.15 K, 101 kPa, x2 = 0.2004	1.801
323.15 K, 101 kPa, x2 = 0.3002	1.722
323.15 K, 101 kPa, x2 = 0.4	1.624
323.15 K, 101 kPa, x2 = 0.5	1.517
323.15 K, 101 kPa, x2 = 0.6	1.405
323.15 K, 101 kPa, x2 = 0.6998	1.304
323.15 K, 101 kPa, x2 = 0.8	1.212
323.15 K, 101 kPa, x2 = 0.9001	1.141
323.15 K, 101.3 kPa, x1 = 0.0961	0.92
323.15 K, 101.3 kPa, x1 = 0.1755	0.95
323.15 K, 101.3 kPa, x1 = 0.2494	1
323.15 K, 101.3 kPa, x1 = 0.3192	1.05
323.15 K, 101.3 kPa, x1 = 0.3902	1.1
323.15 K, 101.3 kPa, x1 = 0.4629	1.2
323.15 K, 101.3 kPa, x1 = 0.5342	1.3
323.15 K, 101.3 kPa, x1 = 0.614	1.3
323.15 K, 101.3 kPa, x1 = 0.6891	1.4
323.15 K, 101.3 kPa, x1 = 0.7654	1.5
323.15 K, 101.3 kPa, x1 = 0.8114	1.5
323.15 K, 101.3 kPa, x1 = 0.921	1.6
